# In patent EP1170007A1, “REMEDIES” (Takara Shuzo Co, Ltd., priority 1999, dated 2000):
# Key:
# [1] = test system: nerve growth factor production by L-M cells; test: Enhancement of nerve growth factor production in L-M cells (enzyme immunoassay); format: cell-based, Rat; details: for Nerve growth factor concentration: 24 hours, 0 µM control 0.132
# Protocol: Rat fibroblast L-M cells (ATCC CCL-1.2) were suspended in a M199 medium (Gibco) containing 0.5% Bacto Peptone (Gibco) at a concentration of 1.0 x 10^5 cells/ml. 1 ml of the suspension was inoculated into each well of a 24-well plate. The cells were cultured aseptically. After culturing for 2 days, the medium was removed and substituted with a M199 medium containing 0.5% bovine serum albumin (Sigma). Then, cyclopentenone (final concentration of 1 to 25 µM), 4HCP (Aldrich) (final concentration of 12.5µM) or dipropionylcyclopentenone (final concentration of 3.1 to 9.4 µM) was added thereto. […]
# After completion of the incubation, the concentration of nerve growth factor in the culture was measured by enzyme immunoassay (NGF Emax Immuno Assay System: Promega). […]
# [2] = test system: HGF production, MRC-5 cells; test: Enhancement of HGF production in MRC-5 cells (ELISA); format: cell-based, Human; details: 24 hours, negative control defined as 100% (7.2 ng/ml)
# Protocol: MRC-5 cells (CCL171, Dainippon Pharmaceutical) were suspended in a DME medium (Bio Whittaker) containing 10% fetal calf serum at a concentration of 1 x 10^5 cells/ml. 500 µl of the suspension was placed into a 48-well cell culture plate. After culturing at 37°C in the presence of 5% CO2 for 24 hours, the medium was exchanged for a DME medium containing 1% fetal calf serum. Then, one of samples was added thereto. The plate was incubated for additional 24 hours. The medium was then recovered, and the amount of HGF in the culture medium was measured using Quantikine Human Hepatocyte Growth Factor (HGF) ELISA Kit (Funakoshi). The amount of HGF produced was expressed defining a negative control as 100%. In this case, the amount of HGF produced for the negative control was 7.2 ng/ml. Cyclopentenone (at a final concentration of 20, 40 or 160 µM), GM (at a final concentration of 20, 40, 80 or 160 µM), or dipropionylcyclopentenone (at a final concentration of 32 or 64 µM) was added as a sample. As a negative control, distilled water was added in the same volume as the sample. As a positive control, prostaglandin E1 was added at a final concentration of 0.01, 0.1, 1 or 10 µM.
# [3] = test system: mouse; test: Single oral dose toxicity in mouse; format: in vivo; details: single dose orally administered to a mouse at 100 mg/kg
substance,measurement,setting,value
dipropionylcyclopentenone,Nerve growth factor concentration,[1]; 3.1 µM,0.164 ng/mL
same,Nerve growth factor concentration,[1]; 6.3 µM,0.259 ng/mL
same,Nerve growth factor concentration,[1]; 9.4 µM,0.257 ng/mL
same,production of nerve growth factor by L-M cells (result in words),[1]; 24 hours incubation,enhanced the production of nerve growth factor by L-M cells in a concentration-dependent manner
same,Increase in HGF production,[2]; 32 µM,120%
same,Increase in HGF production,[2]; 64 µM,144%
same,death after single oral dose,[3],no example of death was observed
